The source made the active and inactive calls.
How the values were obtained:
[1] = enhancers of respiration in Yfh1-depleted yeast, dose response, Friedreich's ataxia, plus single-dose screen (AID 1465); type: functional;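 note: yeast depleted of Yfh1p frataxin homolog grown on glycerol needing respiration; WST-1 tetrazolium dye reduction as measure of cellular dehydrogenase metabolic activity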
Leucine aminopeptidase = target: T1, Leucine aminopeptidase (Plasmodium falciparum 3D7, UniProt Q8IL11); test: P. falciparum M17LAP inhibitors, primary screen, biochemical, fluorogenic H-Leu-NHMec substrate, 1536-well (AID 1619); type: functional
T1 sequence (Q8IL11 whole entry): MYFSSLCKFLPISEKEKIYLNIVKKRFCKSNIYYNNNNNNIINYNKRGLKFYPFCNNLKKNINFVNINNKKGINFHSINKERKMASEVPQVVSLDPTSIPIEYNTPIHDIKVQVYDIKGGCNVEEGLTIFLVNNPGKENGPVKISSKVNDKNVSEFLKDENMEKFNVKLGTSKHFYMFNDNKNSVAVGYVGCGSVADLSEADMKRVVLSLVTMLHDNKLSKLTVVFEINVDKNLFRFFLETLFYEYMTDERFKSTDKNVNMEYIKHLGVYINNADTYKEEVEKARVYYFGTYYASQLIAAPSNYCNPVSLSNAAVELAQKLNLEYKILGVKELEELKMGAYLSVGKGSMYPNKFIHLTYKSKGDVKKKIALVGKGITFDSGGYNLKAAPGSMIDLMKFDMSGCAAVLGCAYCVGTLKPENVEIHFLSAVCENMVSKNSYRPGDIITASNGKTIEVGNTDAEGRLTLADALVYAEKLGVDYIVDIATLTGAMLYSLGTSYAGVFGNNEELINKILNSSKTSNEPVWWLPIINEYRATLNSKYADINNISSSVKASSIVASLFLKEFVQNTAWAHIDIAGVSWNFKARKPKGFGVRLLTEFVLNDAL

14-3-3 protein gamma = 14-3-3 protein gamma (Homo sapiens, UniProt P61981); test: modulators of 14-3-3 gamma client binding – dose response (AID 711); type: functional
H4 = test: Luminescence Cell-Based Dose Response HTS to Identify Activators of 5'UTR Stem-Loop Driven Prion Protein mRNA Translation in H4 Neuroglioblastoma Cells. [Related pubchem assays: 1829 (Project Summary), 1814 (Primary HTS)]; type: functional; conditions: Homo sapiens
[2] = cytotoxicity in KRAS-transformed pancreatic duct cells, primary screen, cell-based, fluorescence, HTS (AID 431); type: functional; conditions: Homo sapiens;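 note: cell line used: HPDE-C7K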
[3] = cytotoxicity in HPDE-C7 cells, cell-based, fluorescence, HTS (AID 430); type: functional; conditions: Homo sapiens
[4] = Luminescence Cell-Based Dose Response HTS to Identify Activators of Luciferase Translation or Activity in H4 […] Cells. [Related pubchem assays: 1829 (Project Summary), 1814 (Primary HTS)]; type: functional
[5] = A High Throughput Confirmatory Assay used to Identify Novel Compounds that Inhibit Mycobacterium Tuberculosis in the absence of Glycerol.; type: functional
[6] = microbe, parasite or virus in culture; type: functional; conditions: Mycobacterium tuberculosis
Vero = test: cells; type: functional; conditions: Chlorocebus sabaeus
Mucolipin-3 = Mucolipin-3 (Homo sapiens, UniProt Q8TDD5); test: Dose response cell-based high-throughput screening assay for agonists of the transient receptor potential channel ML3 (TRPML3). [Related pubchem assays: 1526, 1424, 1448 ]; type: functional
Mucolipin-3, sequence (Q8TDD5 whole entry): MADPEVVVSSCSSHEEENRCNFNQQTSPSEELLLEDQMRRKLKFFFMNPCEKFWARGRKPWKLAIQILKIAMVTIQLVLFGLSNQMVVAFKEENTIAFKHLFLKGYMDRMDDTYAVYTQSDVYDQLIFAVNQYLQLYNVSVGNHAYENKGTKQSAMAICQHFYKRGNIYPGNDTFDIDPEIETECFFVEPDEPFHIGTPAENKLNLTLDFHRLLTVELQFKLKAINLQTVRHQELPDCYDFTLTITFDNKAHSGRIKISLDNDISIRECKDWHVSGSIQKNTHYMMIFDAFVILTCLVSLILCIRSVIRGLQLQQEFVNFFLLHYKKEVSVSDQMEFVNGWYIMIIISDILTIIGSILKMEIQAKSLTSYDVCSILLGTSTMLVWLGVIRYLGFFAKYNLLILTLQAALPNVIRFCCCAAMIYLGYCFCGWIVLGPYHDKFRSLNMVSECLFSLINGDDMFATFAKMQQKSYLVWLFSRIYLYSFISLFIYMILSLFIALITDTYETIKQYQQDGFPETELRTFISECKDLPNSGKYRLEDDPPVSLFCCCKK

Ion channel NompC = Ion channel NompC (Danio rerio, UniProt Q7T1G6); test: Fluorescence counterscreen assay for TRPML3 agonists: dose response cell-based high-throughput screening assay to identify agonists of the transient receptor potential channel N1 (TRPN1). [Related pubchem assays: 1526, 1424, 1448 ]; type: functional
Ion channel NompC, sequence (Q7T1G6 whole entry): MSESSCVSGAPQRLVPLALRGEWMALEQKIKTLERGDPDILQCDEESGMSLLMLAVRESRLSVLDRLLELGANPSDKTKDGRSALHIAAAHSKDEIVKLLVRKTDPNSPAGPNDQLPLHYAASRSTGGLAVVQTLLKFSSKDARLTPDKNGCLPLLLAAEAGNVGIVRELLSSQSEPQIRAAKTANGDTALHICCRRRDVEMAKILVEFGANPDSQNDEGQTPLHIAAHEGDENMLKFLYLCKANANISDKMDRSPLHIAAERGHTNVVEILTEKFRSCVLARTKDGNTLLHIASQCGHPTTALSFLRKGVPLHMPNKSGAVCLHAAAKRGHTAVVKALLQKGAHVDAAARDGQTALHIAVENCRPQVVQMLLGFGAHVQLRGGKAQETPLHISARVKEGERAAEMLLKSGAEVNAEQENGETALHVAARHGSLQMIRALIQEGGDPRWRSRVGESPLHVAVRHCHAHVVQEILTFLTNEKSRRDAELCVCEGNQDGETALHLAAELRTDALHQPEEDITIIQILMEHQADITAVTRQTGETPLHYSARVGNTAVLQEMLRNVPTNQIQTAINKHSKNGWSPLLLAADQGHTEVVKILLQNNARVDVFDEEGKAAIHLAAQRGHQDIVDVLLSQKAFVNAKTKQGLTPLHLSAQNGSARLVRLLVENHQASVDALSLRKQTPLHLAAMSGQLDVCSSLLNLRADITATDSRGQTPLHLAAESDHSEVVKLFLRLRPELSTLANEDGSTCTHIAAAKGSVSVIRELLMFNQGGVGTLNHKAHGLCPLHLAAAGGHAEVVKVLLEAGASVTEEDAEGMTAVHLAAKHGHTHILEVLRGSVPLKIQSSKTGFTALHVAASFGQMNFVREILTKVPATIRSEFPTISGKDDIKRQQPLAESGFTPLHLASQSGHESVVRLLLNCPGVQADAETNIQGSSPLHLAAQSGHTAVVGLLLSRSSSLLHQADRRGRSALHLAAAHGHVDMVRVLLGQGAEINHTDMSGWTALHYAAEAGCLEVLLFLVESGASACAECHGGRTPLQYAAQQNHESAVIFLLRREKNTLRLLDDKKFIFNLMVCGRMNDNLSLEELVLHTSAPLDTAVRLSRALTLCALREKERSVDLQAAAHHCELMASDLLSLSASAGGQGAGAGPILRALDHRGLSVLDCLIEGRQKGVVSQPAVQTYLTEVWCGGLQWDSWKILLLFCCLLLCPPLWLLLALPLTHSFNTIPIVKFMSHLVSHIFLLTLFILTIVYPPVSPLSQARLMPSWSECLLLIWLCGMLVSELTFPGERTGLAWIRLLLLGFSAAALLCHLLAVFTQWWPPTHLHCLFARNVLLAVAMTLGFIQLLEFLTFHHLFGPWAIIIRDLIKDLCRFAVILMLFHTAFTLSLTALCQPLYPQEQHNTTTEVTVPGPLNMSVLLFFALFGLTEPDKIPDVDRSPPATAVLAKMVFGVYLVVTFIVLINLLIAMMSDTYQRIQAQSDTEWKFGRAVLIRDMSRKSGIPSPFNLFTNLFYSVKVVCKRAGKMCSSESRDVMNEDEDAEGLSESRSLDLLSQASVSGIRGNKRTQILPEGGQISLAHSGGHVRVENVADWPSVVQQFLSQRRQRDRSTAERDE

cells = type: functional
[7] = Fluorescence-based cell-based high throughput dose response assay for inhibitors of the interaction of nucleotide-binding oligomerization domain containing 2 (NOD2) and the receptor-interacting serine-threonine kinase 2 (RIPK2).; type: functional; conditions: Homo sapiens
[8] = target: Photoreceptor-specific nuclear receptor (Homo sapiens, UniProt Q9Y5X4); type: functional, cell-based;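 note: CHO-S cells with Gal4-NCOR and VP16-NR2E3 two-hybrid luciferase reporter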
Photoreceptor-specific nuclear receptor, sequence (Q9Y5X4 whole entry, the tested form may be a part): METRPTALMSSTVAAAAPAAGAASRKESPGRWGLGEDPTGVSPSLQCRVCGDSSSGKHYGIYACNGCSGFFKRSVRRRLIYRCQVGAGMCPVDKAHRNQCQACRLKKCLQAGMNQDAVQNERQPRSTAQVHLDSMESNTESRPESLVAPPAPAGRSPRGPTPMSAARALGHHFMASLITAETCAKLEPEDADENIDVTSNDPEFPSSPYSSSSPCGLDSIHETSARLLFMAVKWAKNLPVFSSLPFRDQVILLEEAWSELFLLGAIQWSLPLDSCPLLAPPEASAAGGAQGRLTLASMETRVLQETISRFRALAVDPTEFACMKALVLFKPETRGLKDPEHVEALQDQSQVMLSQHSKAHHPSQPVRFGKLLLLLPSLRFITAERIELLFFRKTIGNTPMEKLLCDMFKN

Paired box protein Pax-8 = Paired box protein Pax-8 (Homo sapiens, UniProt Q06710); test: inhibitors of PAX8-driven TPO luciferase reporter, dose response, RMG-I cells, cherry-pick (AID 687027); type: functional, cell-based;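 note: luciferase reporter driven by Pax8 target thyroperoxidase promoter measured by SteadyGlo luminescence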
Paired box protein Pax-8, sequence (Q06710 whole entry): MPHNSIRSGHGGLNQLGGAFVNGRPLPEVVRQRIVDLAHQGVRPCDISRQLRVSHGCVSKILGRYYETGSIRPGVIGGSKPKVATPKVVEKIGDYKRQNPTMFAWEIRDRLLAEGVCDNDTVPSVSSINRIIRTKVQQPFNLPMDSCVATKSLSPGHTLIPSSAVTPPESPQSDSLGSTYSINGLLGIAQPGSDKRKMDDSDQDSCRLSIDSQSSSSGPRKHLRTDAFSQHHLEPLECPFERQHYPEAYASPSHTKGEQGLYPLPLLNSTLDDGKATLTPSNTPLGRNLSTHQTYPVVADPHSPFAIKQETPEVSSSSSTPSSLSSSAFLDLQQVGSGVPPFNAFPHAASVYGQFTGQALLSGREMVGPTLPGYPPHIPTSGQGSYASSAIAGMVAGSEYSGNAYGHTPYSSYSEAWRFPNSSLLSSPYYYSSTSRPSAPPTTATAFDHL

[9] = HepG2 cell cytotoxicity, dose response, cytotoxicity control for non-replicating M. tuberculosis project (AID 489018); type: functional; conditions: Mycobacterium tuberculosis
[10] = THP-1 cell cytotoxicity, dose response, cytotoxicity control for non-replicating M. tuberculosis project (AID 489025); type: functional
[11] = target: G-protein coupled receptor 55 (Homo sapiens, UniProt Q9Y2T6); test: GPR55 antagonists blocking LPI-driven arrestin recruitment, primary screen, imaging, U2OS, beta-arrestin-GFP, LPI agonist (AID 2013); type: functional;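 note: antagonist potency measured as reduced agonist-driven arrestin aggregation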
G-protein coupled receptor 55, sequence (Q9Y2T6 whole entry): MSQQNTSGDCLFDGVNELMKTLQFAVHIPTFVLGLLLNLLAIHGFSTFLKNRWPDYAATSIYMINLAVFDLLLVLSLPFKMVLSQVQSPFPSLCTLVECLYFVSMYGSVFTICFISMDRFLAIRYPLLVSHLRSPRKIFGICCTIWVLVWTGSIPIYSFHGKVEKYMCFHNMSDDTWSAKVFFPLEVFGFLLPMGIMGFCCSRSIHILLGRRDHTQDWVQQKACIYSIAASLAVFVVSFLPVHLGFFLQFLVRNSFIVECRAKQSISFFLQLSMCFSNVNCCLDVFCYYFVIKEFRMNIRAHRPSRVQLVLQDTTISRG

[12] = Vero E6 cell cytotoxicity, dose response, cytotoxicity control for non-replicating M. tuberculosis project, secondary assay (AID 492998); type: functional, VeroE6; conditions: Vero C1008
[13] = target: T2, Rac GTPase-activating protein 1 (Homo sapiens, UniProt Q9H0H5); test: MgcRacGAP GTPase-activating activity inhibitors, confirmation, biochemical, ADP Hunter fluorescence, primary and confirmatory (AID 624330); type: functional
T2 sequence (Q9H0H5 whole entry): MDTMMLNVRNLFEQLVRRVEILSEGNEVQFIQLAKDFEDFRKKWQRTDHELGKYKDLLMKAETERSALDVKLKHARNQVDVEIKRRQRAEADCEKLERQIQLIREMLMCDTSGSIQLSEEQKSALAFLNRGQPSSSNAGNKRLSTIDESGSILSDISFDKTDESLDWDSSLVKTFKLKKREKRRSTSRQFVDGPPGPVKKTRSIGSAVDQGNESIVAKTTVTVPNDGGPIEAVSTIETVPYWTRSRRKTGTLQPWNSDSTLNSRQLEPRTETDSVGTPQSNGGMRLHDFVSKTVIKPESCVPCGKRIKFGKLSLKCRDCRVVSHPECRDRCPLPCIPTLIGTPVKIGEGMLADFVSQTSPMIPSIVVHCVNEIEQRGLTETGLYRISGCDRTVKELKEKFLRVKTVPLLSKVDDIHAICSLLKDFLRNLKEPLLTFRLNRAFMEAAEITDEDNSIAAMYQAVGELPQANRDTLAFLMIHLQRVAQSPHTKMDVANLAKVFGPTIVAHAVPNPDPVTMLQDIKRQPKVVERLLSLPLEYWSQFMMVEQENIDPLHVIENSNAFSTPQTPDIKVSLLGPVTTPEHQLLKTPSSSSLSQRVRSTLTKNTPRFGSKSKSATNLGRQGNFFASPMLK

INS1 = test: beta cell apoptosis inhibitors, cytokine rescue, dose response, luminescence, retest (AID 449756); type: functional, cell-based; conditions: Rattus norvegicus;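 note: cell death triggered by IL-1 beta plus TNF-alpha plus IFN-gamma mixture; protective hits raise ATP signal compared with cytokine alone wells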
[14] = Luminescence-based dose response cell-based high throughput screening assay for cytotoxic compounds using the IEC-6 intestinal epithelial cell line. [Related pubchem assays: 1858 (Summary AID.), 1825 (Counterscreen.), 1907 (Confirmation screen.)]; type: functional
[15] = HeLa cell cytotoxicity, dose response, cytotoxicity control for MgcRacGAP inhibitor project (AID 624300); type: functional
[16] = target: T3, Short transient receptor potential channel 4 (Mus musculus, UniProt Q9QUQ5); test: mouse TRPC4 channel inhibitors, dose response, cell-based, HEK293 TRPC4/mu-opioid, Fluo-4 calcium (AID 434942); type: functional;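 note: potency of inhibitors blocking the TRPC4 calcium response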
T3 sequence (Q9QUQ5 whole entry): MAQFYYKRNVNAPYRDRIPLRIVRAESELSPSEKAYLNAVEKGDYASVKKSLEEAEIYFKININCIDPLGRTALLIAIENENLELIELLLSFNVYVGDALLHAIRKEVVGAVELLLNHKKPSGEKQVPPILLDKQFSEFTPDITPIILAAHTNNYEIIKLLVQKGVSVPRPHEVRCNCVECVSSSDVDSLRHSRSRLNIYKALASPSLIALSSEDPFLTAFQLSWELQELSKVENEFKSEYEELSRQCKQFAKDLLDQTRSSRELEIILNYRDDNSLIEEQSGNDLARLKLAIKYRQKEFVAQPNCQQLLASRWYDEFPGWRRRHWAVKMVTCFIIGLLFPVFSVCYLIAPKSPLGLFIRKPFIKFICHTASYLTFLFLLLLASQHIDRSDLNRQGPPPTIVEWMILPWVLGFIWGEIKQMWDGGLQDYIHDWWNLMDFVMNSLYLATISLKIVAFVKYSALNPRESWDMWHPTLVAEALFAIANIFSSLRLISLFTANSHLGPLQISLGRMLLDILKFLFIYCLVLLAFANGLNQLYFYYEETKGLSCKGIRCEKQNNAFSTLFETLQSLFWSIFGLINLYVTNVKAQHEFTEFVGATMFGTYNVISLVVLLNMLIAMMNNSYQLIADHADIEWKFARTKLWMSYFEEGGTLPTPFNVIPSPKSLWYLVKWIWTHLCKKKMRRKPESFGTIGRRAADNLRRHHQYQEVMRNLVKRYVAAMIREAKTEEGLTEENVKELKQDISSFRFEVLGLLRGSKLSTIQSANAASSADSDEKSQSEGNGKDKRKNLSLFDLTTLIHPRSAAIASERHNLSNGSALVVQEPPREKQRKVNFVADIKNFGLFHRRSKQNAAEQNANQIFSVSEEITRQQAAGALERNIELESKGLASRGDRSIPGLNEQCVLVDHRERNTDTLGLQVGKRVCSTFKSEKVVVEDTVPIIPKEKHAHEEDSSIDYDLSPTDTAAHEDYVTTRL

[17] = target: Mitogen-activated protein kinase 10 (Homo sapiens, UniProt P53779); test: Dose response biochemical screening assay for inhibitors of c-Jun N-Terminal Kinase 3 (JNK3). [Related pubchem assays: 746 ]
Mitogen-activated protein kinase 10, sequence (P53779 whole entry): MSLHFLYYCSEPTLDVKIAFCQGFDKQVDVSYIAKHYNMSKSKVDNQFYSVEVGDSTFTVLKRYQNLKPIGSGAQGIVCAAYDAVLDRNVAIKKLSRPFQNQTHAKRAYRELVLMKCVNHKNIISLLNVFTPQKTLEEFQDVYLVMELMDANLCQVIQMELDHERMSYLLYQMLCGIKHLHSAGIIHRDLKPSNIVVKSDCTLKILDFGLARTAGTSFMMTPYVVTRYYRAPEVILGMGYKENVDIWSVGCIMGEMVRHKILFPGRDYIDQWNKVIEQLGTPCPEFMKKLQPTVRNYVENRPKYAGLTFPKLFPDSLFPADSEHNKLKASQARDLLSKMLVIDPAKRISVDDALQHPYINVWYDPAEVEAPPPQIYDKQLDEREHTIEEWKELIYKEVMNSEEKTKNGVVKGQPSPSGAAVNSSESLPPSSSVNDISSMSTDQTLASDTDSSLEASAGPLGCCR

HEK293 = test: inhibitors of LMP1-driven NF-kB reporter, dose response, cell-based, HEK293, luciferase, cherry-pick (AID 588343); type: functional; conditions: Homo sapiens
[18] = target: Protein-tyrosine kinase 2-beta (Homo sapiens, UniProt Q14289);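 note: potency of inhibitors of PYK2 kinase phosphorylation of poly-GT substrate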
[19] = target: Dual specificity tyrosine-phosphorylation-regulated kinase 1A (Rattus norvegicus, UniProt Q63470); type: biochemical, Homo sapiens
Streptococcus = test: Streptococcus pyogenes growth inhibition counter-screen, dose response, counter-screen for streptokinase expression inhibitor project, luminescence, BacTiter-Glo, strain UMAA2166 (AID 2477); type: functional, organism-based
[20] = nonselective inhibitors of cellular cAMP signaling, dose response, counter-screen for MC4R biased antagonist project, cell-based, TR-FRET cAMP detection (AID 602305); type: functional;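 note: U2OS cells stimulated with forskolin near its EC80 as the cAMP inducer; potency is for inhibition of forskolin-stimulated cAMP signaling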
Streptokinase A = target: T4, Streptokinase A (Streptococcus pyogenes serotype M1, UniProt P10520); test: Absorbance Microorganism-Based Dose Response Follow up to Identify Inhibitors of Streptokinase Expression. [Related pubchem assays: 1677 (Project Summary), 1915, 1914, 1902 (Retest at Dose), 1900 (Counter Screen), 1662 (Primary HTS)]; type: functional, Streptococcus pyogenes M1 GAS
T4 sequence (P10520 whole entry): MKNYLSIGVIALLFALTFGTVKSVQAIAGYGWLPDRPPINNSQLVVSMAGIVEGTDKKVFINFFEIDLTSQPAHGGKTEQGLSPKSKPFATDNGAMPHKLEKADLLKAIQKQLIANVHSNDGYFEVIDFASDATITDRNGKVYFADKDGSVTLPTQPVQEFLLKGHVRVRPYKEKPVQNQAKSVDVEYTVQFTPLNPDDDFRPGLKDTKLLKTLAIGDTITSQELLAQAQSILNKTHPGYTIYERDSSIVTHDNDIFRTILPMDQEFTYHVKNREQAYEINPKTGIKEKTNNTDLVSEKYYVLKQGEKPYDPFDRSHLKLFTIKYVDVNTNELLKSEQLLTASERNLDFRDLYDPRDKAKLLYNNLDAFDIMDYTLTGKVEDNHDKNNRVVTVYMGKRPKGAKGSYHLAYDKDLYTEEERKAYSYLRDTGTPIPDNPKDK

Melanocortin receptor 4 = Melanocortin receptor 4 (Homo sapiens, UniProt P32245); test: MC4R antagonist potency on cAMP, dose response, cell-based, TR-FRET, biased antagonists (AID 602298); type: functional;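 note: antagonist potency against agonist-stimulated cAMP production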
Melanocortin receptor 4, sequence (P32245 whole entry): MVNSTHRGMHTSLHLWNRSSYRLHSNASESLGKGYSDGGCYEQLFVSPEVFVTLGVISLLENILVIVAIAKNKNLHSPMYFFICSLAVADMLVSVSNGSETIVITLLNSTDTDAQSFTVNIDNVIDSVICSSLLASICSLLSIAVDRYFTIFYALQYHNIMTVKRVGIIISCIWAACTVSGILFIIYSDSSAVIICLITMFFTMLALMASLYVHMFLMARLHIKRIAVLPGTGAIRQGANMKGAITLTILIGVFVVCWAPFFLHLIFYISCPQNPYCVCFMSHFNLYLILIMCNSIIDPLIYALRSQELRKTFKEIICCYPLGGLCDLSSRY

[21] = target: Potassium voltage-gated channel subfamily KQT member 2 (Rattus norvegicus, UniProt O88943, W236L); test: KCNQ2 channel potentiators, dose response, mechanism study for KCNQ2 potentiator project, cell-based, automated electrophysiology (AID 2603); type: functional
[22] = target: Neuropeptide Y receptor type 2 (Homo sapiens, UniProt P49146); type: functional, cell-based;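 note: HEK293 cells expressing the receptor and a CNG channel; stimulus was NPY near EC95 followed by isoproterenol to raise cAMP; antagonist potency measured as restoring cAMP signal that NPY suppresses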
Neuropeptide Y receptor type 2, sequence (P49146 whole entry): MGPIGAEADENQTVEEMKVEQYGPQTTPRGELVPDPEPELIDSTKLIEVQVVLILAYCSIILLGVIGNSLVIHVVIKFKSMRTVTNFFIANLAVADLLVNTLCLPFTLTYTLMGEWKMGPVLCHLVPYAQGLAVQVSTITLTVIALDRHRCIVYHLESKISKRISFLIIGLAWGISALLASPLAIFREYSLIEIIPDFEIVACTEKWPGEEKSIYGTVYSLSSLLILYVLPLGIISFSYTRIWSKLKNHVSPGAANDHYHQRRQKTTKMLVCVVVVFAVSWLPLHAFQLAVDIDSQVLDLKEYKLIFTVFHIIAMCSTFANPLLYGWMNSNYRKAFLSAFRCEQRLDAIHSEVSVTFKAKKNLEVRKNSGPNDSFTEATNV

[23] = target: Neuropeptide Y receptor type 1 (Homo sapiens, UniProt P25929); type: functional;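 note: HEK293 cells with a CNG channel challenged with NPY then isoproterenol; potency as antagonist that reverses NPY suppression of cAMP signal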
Neuropeptide Y receptor type 1, sequence (P25929 whole entry): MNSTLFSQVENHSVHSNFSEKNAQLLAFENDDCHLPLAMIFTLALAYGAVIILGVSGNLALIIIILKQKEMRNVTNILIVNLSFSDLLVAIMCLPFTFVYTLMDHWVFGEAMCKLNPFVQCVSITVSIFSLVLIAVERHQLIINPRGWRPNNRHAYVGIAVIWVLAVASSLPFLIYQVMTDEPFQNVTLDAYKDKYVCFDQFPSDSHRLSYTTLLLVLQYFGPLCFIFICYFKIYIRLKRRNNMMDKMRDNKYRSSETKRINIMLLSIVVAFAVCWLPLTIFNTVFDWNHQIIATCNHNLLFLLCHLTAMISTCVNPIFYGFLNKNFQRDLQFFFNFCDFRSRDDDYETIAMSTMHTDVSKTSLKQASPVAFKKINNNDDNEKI

N#C/C(=C\c1ccc(N2CCOCC2)o1)C(=O)N1CCOCC1
EC50 [1]: > 100 µM (active)
IC50 (Leucine aminopeptidase): 99.7 µM (active)

Cc1csc(NC(=O)CSc2nsc(SCC(=O)Nc3nc(C)cs3)c2C#N)n1
IC50 (14-3-3 protein gamma): > 50 µM (not active)
EC50 (H4): > 120 µM (not active)
EC50 [2]: 11 µM (active)
EC50 [3]: 12.4 µM (active)
EC50 [4]: 1.86 µM (active)

CC(C(Sc1ccccc1N)c1ccccc1)[N+](=O)[O-] (centres undefined)
IC50 [5]: > 100 µM (active)
CC50 [6]: 32.6 µM (active)
CC50 (Vero): 16.6 µM (active)

COC(=O)c1c(NC(=O)COC(=O)[C@@H](NS(=O)(=O)c2ccc(C)cc2)C(C)C)sc2c1CCC2
EC50 (Mucolipin-3): 2.8 µM (active)
EC50 (Ion channel NompC): > 29.9 µM (not active)

CN1C2CCC1/C(=C/c1ccccn1)C(=O)/C2=C\c1ccccn1
IC50 (cells): 7.83 µM (active)
IC50 [7]: 2.58 µM (active)
IC50 [8]: 1.73 µM (active)
AC50 (Paired box protein Pax-8): 0.852 µM (active)
CC50 [9]: 1.49 µM (active)
CC50 [10]: 0.894 µM (active)
IC50 [11]: 3.25 µM (active)
CC50 [12]: 1.06 µM (active)
CC50 [6]: 1.69 µM (active)
IC50 [13]: 62.5 µM (active)
AC50 (INS1): 1.59 µM (active)
IC50 [14]: 1.76 µM (active)
CC50 [15]: 12.5 µM (active)

COC(=O)c1cccc2c1-c1ccccc1/C2=N/O
EC50 [16]: 2.99 µM (active)
IC50 [17]: 8.81 µM (active)
AC50 (HEK293): 28 µM (active)
IC50 [18]: 6.71 µM (active)
AC50 [19]: 0.434 µM (active)

Cc1ccc(Sc2ccc(NC(=O)c3ccc(F)cc3)cc2C#N)cc1
EC50 (Streptococcus): > 500 µM (not active)
IC50 [20]: > 64.6 µM (inactive)
EC50 (Streptokinase A): > 500 µM (not active)
IC50 (Melanocortin receptor 4): > 64.6 µM (inactive)

COC(=O)CSc1[nH]c2ccc(F)cc2c1[N+](=O)[O-]
IC50 [20]: > 64.6 µM (inactive)
IC50 (Melanocortin receptor 4): > 64.6 µM (inactive)
EC50 [21]: 0.17 µM (active)

Cc1cccc(NC(S)=NN=C(S)NCc2ccccc2)c1
IC50 [22]: > 35 µM (not active)
IC50 [23]: > 35 µM (not active)

Source: ChEMBL document CHEMBL1201862, “PubChem BioAssay data set” (2004)
